These molecules were tested on HCI-027 (organoid from a triple-negative breast cancer xenograft) (assay: CTG-3D luminescence at 96 h relative to day-0 seeding control (ratio to day 0); higher = more growth / less cytotoxicity; PDxO 3D drug screen, 96 h, CTG-3D normalised to day-0 seeding control.). Conditions: 1 µM; days in culture: 176.

| Structure (SMILES) | CTG-3D luminescence at 96 h |
| --- | --- |
| COc1cc2c(Oc3ccc4[nH]c(C)cc4c3F)ncnc2cc1OCCCN1CCCC1 [cediranib] | 2.56 |
| CC(C)n1nc(-c2ccc3oc(N)nc3c2)c2c(N)ncnc21 [sapanisertib] | 0.529 |
| Cc1cc(Nc2ncnc3ccc(NC4=NC(C)(C)CO4)cc23)ccc1Oc1ccn2ncnc2c1 [tucatinib] | 1.61 |
| C[C@H](NC(=O)CCC(F)(F)F)C(=O)N[C@@H]1C(=O)N(CCO)c2ncccc2-c2ccccc21 [crenigacestat] | 0.179 |
| C[C@]12CC[C@@H]3c4ccc(O)cc4C[C@@H](CCCCCCCCC[S+]([O-])CCCC(F)(F)C(F)(F)F)[C@H]3[C@@H]1CC[C@@H]2O (stereo partly specified) [fulvestrant] | 2.57 |
| O=C(c1ccc(F)c(F)c1Nc1ccc(I)cc1F)N1CC(O)([C@@H]2CCCCN2)C1 [cobimetinib] | 1.04 |
| O=C(/C=C/c1cccnc1)NCCCCC1CCN(C(=O)c2ccccc2)CC1 [FK866] | 0.104 |
| CS(=O)(=O)c1ccc(C(=O)Nc2ccc(Cl)c(-c3ccccn3)c2)c(Cl)c1 [vismodegib] | 2.22 |
| C=CCn1c(=O)c2cnc(Nc3ccc(N4CCN(C)CC4)cc3)nc2n1-c1cccc(C(C)(C)O)n1 [adavosertib] | 0.185 |

Same assay, conditions: 1 µM; days in culture: 194

| Structure (SMILES) | CTG-3D luminescence at 96 h |
| --- | --- |
| COc1cc2c(Oc3ccc4[nH]c(C)cc4c3F)ncnc2cc1OCCCN1CCCC1 [cediranib] | 2.13 |
| CC(C)n1nc(-c2ccc3oc(N)nc3c2)c2c(N)ncnc21 [sapanisertib] | 0.824 |
| Cc1cc(Nc2ncnc3ccc(NC4=NC(C)(C)CO4)cc23)ccc1Oc1ccn2ncnc2c1 [tucatinib] | 2.06 |
| C[C@H](NC(=O)CCC(F)(F)F)C(=O)N[C@@H]1C(=O)N(CCO)c2ncccc2-c2ccccc21 [crenigacestat] | 0.276 |
| C[C@]12CC[C@@H]3c4ccc(O)cc4C[C@@H](CCCCCCCCC[S+]([O-])CCCC(F)(F)C(F)(F)F)[C@H]3[C@@H]1CC[C@@H]2O (stereo partly specified) [fulvestrant] | 2.32 |
| O=C(c1ccc(F)c(F)c1Nc1ccc(I)cc1F)N1CC(O)([C@@H]2CCCCN2)C1 [cobimetinib] | 1.56 |
| O=C(/C=C/c1cccnc1)NCCCCC1CCN(C(=O)c2ccccc2)CC1 [FK866] | 0.0511 |
| CS(=O)(=O)c1ccc(C(=O)Nc2ccc(Cl)c(-c3ccccn3)c2)c(Cl)c1 [vismodegib] | 2.6 |
| C=CCn1c(=O)c2cnc(Nc3ccc(N4CCN(C)CC4)cc3)nc2n1-c1cccc(C(C)(C)O)n1 [adavosertib] | 0.158 |

Same assay, conditions: 1 µM; days in culture: 201

| Structure (SMILES) | CTG-3D luminescence at 96 h |
| --- | --- |
| COc1cc2c(Oc3ccc4[nH]c(C)cc4c3F)ncnc2cc1OCCCN1CCCC1 [cediranib] | 2.39 |
| CC(C)n1nc(-c2ccc3oc(N)nc3c2)c2c(N)ncnc21 [sapanisertib] | 0.784 |
| Cc1cc(Nc2ncnc3ccc(NC4=NC(C)(C)CO4)cc23)ccc1Oc1ccn2ncnc2c1 [tucatinib] | 2.1 |
| C[C@H](NC(=O)CCC(F)(F)F)C(=O)N[C@@H]1C(=O)N(CCO)c2ncccc2-c2ccccc21 [crenigacestat] | 0.206 |
| C[C@]12CC[C@@H]3c4ccc(O)cc4C[C@@H](CCCCCCCCC[S+]([O-])CCCC(F)(F)C(F)(F)F)[C@H]3[C@@H]1CC[C@@H]2O (stereo partly specified) [fulvestrant] | 2.56 |
| O=C(c1ccc(F)c(F)c1Nc1ccc(I)cc1F)N1CC(O)([C@@H]2CCCCN2)C1 [cobimetinib] | 0.995 |
| O=C(/C=C/c1cccnc1)NCCCCC1CCN(C(=O)c2ccccc2)CC1 [FK866] | 0.0296 |
| CS(=O)(=O)c1ccc(C(=O)Nc2ccc(Cl)c(-c3ccccn3)c2)c(Cl)c1 [vismodegib] | 3.36 |
| C=CCn1c(=O)c2cnc(Nc3ccc(N4CCN(C)CC4)cc3)nc2n1-c1cccc(C(C)(C)O)n1 [adavosertib] | 0.149 |

Same assay, conditions: 10 µM; days in culture: 176

| Structure (SMILES) | CTG-3D luminescence at 96 h |
| --- | --- |
| COc1cc2c(Oc3ccc4[nH]c(C)cc4c3F)ncnc2cc1OCCCN1CCCC1 [cediranib] | 0.0266 |
| CC(C)n1nc(-c2ccc3oc(N)nc3c2)c2c(N)ncnc21 [sapanisertib] | 0.264 |
| Cc1cc(Nc2ncnc3ccc(NC4=NC(C)(C)CO4)cc23)ccc1Oc1ccn2ncnc2c1 [tucatinib] | 0.414 |
| C[C@H](NC(=O)CCC(F)(F)F)C(=O)N[C@@H]1C(=O)N(CCO)c2ncccc2-c2ccccc21 [crenigacestat] | 0.173 |
| C[C@]12CC[C@@H]3c4ccc(O)cc4C[C@@H](CCCCCCCCC[S+]([O-])CCCC(F)(F)C(F)(F)F)[C@H]3[C@@H]1CC[C@@H]2O (stereo partly specified) [fulvestrant] | 1.77 |
| O=C(c1ccc(F)c(F)c1Nc1ccc(I)cc1F)N1CC(O)([C@@H]2CCCCN2)C1 [cobimetinib] | 0.17 |
| O=C(/C=C/c1cccnc1)NCCCCC1CCN(C(=O)c2ccccc2)CC1 [FK866] | 0.0553 |
| CS(=O)(=O)c1ccc(C(=O)Nc2ccc(Cl)c(-c3ccccn3)c2)c(Cl)c1 [vismodegib] | 1.1 |
| C=CCn1c(=O)c2cnc(Nc3ccc(N4CCN(C)CC4)cc3)nc2n1-c1cccc(C(C)(C)O)n1 [adavosertib] | 0.0765 |
